From patent US4578383A, “CL 1565 antibiotic compounds” (priority 1984, dated 1986)
Like-named read-outs stand apart in the source and are kept apart here.

Test system: P388 Lymphatic Leukemia
Type: in vivo, Mice
From the text: The test method used is based on that described in Cancer Chemother. Reports 3:1-87 (part 3), 1972.

[1] = 3.1 mg/kg/day (CL 1565-T and CL 1565-B tables)
[2] = 6.3 mg/kg/day (CL 1565-T and CL 1565-B tables)
[3] = 12.5 mg/kg/day (CL 1565-T and CL 1565-B tables)

SMILES | T/C × 100 [1] | T/C × 100 [2] | T/C × 100 [3] | T/C × 100 (toxicity noted) (25.0 mg/kg/day (CL 1565-B table)) | T/C × 100 (25.0 mg/kg/day (CL 1565-T table))
CC=CC=CC=CC(O)CC(OP(=O)(O)O)C(C)(O)C=CC1CC=CC(=O)O1 (centres unmarked) [CL 1565-B] | 129 | 142 | 178 | Toxic | 
CC(O)(C=CC1OC(=O)C=CC1O)C(CC(O)C=CC=CC=CCO)OP(=O)(O)O (centres unmarked) [CL 1565-T] | 147 | 142 | 147 |  | 157
